The record followed here is patent publication US20110269811A1, “INHIBITORS OF SEMICARBAZIDE-SENSITIVE AMINE OXIDASE (SSAO) AND VAP-1 MEDIATED ADHESION USEFUL FOR TREATMENT AND PREVENTION OF DISEASES” (priority 2006, published 2011).

The target in one experiment is T1, Rat SSAO (Rattus norvegicus, UniProt O08590).
T1 construct: rat lung or human umbilical cord homogenates were prepared by chopping the freshly removed tissue; from tissue; host or cells: rat lung homogenate (1000 g supernatant)
T1 sequence (O08590 1-763): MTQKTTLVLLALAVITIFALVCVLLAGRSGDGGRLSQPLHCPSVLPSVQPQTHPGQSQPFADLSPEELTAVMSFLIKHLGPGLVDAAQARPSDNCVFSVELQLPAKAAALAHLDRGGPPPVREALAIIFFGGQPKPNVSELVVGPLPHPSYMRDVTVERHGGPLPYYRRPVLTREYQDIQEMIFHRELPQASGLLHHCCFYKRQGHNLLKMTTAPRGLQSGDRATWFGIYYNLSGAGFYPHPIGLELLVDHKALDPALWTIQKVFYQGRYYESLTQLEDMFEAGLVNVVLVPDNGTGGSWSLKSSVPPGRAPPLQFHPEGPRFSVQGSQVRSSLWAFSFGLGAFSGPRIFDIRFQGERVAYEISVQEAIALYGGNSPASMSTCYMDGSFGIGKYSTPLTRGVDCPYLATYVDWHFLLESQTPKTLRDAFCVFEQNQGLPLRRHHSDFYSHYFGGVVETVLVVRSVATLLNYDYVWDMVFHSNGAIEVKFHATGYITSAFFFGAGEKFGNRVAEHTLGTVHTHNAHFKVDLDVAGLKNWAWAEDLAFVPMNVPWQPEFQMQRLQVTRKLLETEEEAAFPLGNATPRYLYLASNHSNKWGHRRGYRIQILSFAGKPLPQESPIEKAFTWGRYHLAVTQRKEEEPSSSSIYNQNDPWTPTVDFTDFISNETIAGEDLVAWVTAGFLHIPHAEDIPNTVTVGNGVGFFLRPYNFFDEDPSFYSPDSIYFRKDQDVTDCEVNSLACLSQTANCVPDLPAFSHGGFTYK
The experiment is described as follows: In vitro inhibition of SSAO activity, rat lung homogenate, 14C-benzylamine. Type of experiment: biochemical. As for the experimental part: SSAO activity was measured as described (Lizcano J M. Et al. (1998) Biochem J. 331:69). Briefly, rat lung or human umbilical cord homogenates were prepared by chopping the freshly removed tissue into small pieces and washing them thoroughly in PBS. The tissue was then homogenized 1:10 (w/v) for lung or 1:5 (w/v) for umbilical cord, in 10 mM potassium phosphate buffer (pH 7.8). Homogenates were then centrifuged at 1000 g at 4° C. for 10 min (lung) or 25,000 g for 30 min (umbilical cord); the supernatants were kept frozen until ready to use. Lung or umbilical cord homogenate was preincubated with clorgyline and pargyline at 1 μM to inhibit MAO-A and -B activity, respectively, and SSAO inhibitors were generally present at 1 nM-10 μM. The reaction was initiated by addition of 20 μM ^14C— benzylamine as substrate. The reaction was carried out at 37° C. in a final volume of 400 μL of 100 mM potassium phosphate buffer (pH 7.2) and stopped with 100 μl of 2M citric acid. Radioactively labeled products were extracted into toluene/ethyl acetate (1:1, v/v) containing 0.6% (w/v) 2,5-diphenyloxazole (PPO) before liquid scintillation counting.

For the next experiment, the target named is T2, human MAO-B (Homo sapiens, UniProt P27338).
T2 construct: purchased BD Biosciences (MA, USA)
T2 sequence (P27338 1-520): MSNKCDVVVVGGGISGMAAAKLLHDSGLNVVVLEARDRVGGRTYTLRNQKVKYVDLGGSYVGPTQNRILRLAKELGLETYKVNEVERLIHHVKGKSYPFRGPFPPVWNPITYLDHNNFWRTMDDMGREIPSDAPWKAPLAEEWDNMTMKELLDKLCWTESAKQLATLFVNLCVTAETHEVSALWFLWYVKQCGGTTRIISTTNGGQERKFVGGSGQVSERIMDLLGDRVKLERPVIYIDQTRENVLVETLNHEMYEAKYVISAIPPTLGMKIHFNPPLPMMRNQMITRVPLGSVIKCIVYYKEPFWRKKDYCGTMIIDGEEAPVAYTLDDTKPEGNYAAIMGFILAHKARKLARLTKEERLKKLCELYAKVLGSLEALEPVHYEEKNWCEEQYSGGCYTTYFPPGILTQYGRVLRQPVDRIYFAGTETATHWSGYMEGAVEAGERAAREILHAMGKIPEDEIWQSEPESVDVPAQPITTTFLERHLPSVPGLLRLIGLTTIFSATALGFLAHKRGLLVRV
The experiment is described as follows: MAO-B activity, colorimetric method, benzylamine substrate. Type of experiment: biochemical. Conditions: for Specificity of SSAO on MAO-B: ratio of IC50 for MAO-B to IC50 for SSAO; for IC50: recombinant human MAO-B. As for the experimental part:
The specificities of the different SSAO inhibitors was tested by determining their abilities to inhibit MAO-A and MAO-B activities in vitro. Recombinant human MAO-A and human MAO-B enzymes were obtained from BD Biosciences (MA, USA). MAO activity was measured using the colorimetric method essentially as described (Holt, A. et al. (1997) Anal. Biochem. 244: 384). A pre-determined amount of inhibitor diluted in 0.2M potassium phosphate buffer, pH 7.6, was added to each well, if required. […] Controls lacked inhibitor. The following agents were then added to a final reaction volume of 200 μL in 0.2M potassium phosphate buffer, pH 7.6: 0.04 mg/ml of MAO-A or 0.07 mg/ml MAO-B enzyme, 15 μL of 10 mM tyramine substrate (for MAO-A), or 15 μL 100 mM benzylamine substrate (for MAO-B), and 50 μL of freshly made chromogenic solution. The chromogenic solution contained 750 μM vanillic acid (Sigma#V-2250), 400 μM 4-aminoantipyrine (Sigma #A-4328) and 12 U/mL horseradish peroxidase (Sigma #P-8250) in order to cause a change of 0.5 OD A490 nm/h. […] The plates were incubated for 60 min at 37° C. The increase in absorbance, reflecting MAO activity, was measured at 490 nm using microplate spectrophotometer (Power Wave 40, Bio-Tek Inst.). Inhibition was presented as percent inhibition compared to control after correcting for background absorbance and IC50 values calculated using GraphPad Prism software. Clorgyline and pargyline (inhibitors of MAO-A and -B, respectively) at 1 μM, were added to some wells as positive controls for MAO inhibition.

The molecule `COc1ccc(C/C(=C/F)CN)cc1.Cl` [Compound I-1-Z, (Z)-3-Fluoro-2-(4-methoxybenzyl)-allylamine hydrochloride] came in with an IC50 at Rat SSAO of 13 nM. Moreover, at human MAO-B, the “Specificity of SSAO on MAO-B” value came out at 88 and the IC50 turned out to be 1600 nM.
Turning to `CCOc1ccc(C/C(=C\F)CN)cc1.Cl` [Compound I-2-E, (E)-3-Fluoro-2-(4-ethoxybenzyl)-allylamine hydrochloride], the IC50 on Rat SSAO stood at 8 nM; at human MAO-B, 1700 nM. Also, on human MAO-B, the “Specificity of SSAO on MAO-B” value amounted to 189.
For `CCOc1ccc(C/C(=C/F)CN)cc1.Cl` [Compound I-2-Z, (Z)-3-Fluoro-2-(4-ethoxybenzyl)-allylamine hydrochloride] the same measures were 5 nM, 12000 nM and 1200.
For `NC/C(F)=C\Cc1cc(F)cc(C(F)(F)F)c1` [II-1-E, (E)-2-Fluoro-4-(3-fluoro-5-trifluoromethylphenyl)-but-2-enylamine] the same measures were 38 nM, over 87000 nM and over 2400.
